This is an account of results in patent US20220064167A1, “IMIDAZO-PYRAZOLE CARBOXAMIDE DERIVATIVES AS ANTICANCER AGENTS AND THE SYNTHESIS THEREOF” (AVIDIN KFT., priority 2018, published 2022).

Molecules are shown by their SMILES.

The test system of series [1] is A549 (human lung adenocarcinoma). The series is described as follows: viability assay (Table 2). In kind it is cell-based. As for the experimental part:
(§1) For viability assays cells were seeded in 96 well plates (MCF7 and 4T1: 6000, HL60: 120.000 cells/well) and incubated overnight. Compounds were dissolved in dimethyl sulfoxide (DMSO). Cells were treated with an increasing concentration of compounds having the general formula (I.) (156 nM-100 μM). Cell viability was determined after 72h incubation. Resazurin reagent (Sigma-Aldrich) was dissolved in PBS (pH 7.4) at 0.15 mg/ml concentration, sterile filtered (0.22 μm, Merck Millipore) and aliquoted at −20° C. Resazurin reagent (Sigma-Aldrich) was added at a final concentration of 25 μg/ml. After 2 hours incubation at 37° C. 5% CO2 fluorescence (530 nm excitation/580 nm emission) was recorded on a multimode microplate reader (Cytofluor4000, PerSeptive Biosytems). Viability was calculated with relation to untreated control cells and blank wells containing media without cells. IC50 values (50% inhibiting concentration) were calculated by GraphPad Prism® 5 (La Jolla, Calif., USA).
(§2) GBM2 (human glioblastoma), HeLa (human cervical carcinoma), MIA PaCa-2 (human pancreas carcinoma) and U87MG (human glioblastoma) cells were maintained in Dulbecco's Modified Eagle Medium (DMEM) 10% fetal calf serum (FCS, Gibco). A375 (human melanoma), A549 (human lung adenocarcinoma) and HEP3B (human hepatoma) cells were maintained in Dulbecco's Modified Eagle Medium/Nutrient Mixture F-12 (DMEM/F12) 10% FCS.
(§3) Media were supplemented with 2 mM GlutaMAX, and 100 U/mL penicillin, 100 μg/mL streptomycin (Life Technologies, Carlsbad, Calif., USA). Cell cultures were maintained at 37° C. in a humidified incubator in an atmosphere of 5% CO2 (Sanyo, Japan).
(§4) Viability assays were performed as described in Example 102.

For series [2], the system named is MIA PaCa-2 (human pancreas carcinoma). Put plainly: viability assay (Table 2). It is filed as cell-based. How it is done:
as §1, §2, §3, §4

The subject of series [3] is GBM2 (human glioblastoma). Put plainly: viability assay (Table 2). In kind it is cell-based. As for the experimental part:
as §1, §2, §3, §4

For series [4], the system named is pAkt (Ser473) in HL-60 cells. The series is described as follows: flow cytometry of pAkt bright cells (FIG. 2B). It is filed as cell-based, human. Conditions: HL-60, 40 nM, 200 nM and 1 μM. How it is done:
(§5) Human promyelocytic leukemia HL60 Cells (500,000/well) were plated in 24-well tissue culture plates (Corning Life Sciences) in RPMI 10% FCS (Gibco) and were treated with the compounds described in Example 60 and 83 at 40 nM, 200 nM and 1 μM concentrations in 500 μl media. After 24 h incubation time cells with the corresponding supernatants were harvested and centrifuged down (2000 rpm, 5 min).
(§6) Pellets were resuspended and fixed in 3.5% PBS buffered formaldehyde (Molar Chemicals) for 10 minutes. Cells were washed with FACS-buffer (2% FCS, (Gibco) in PBS), centrifuged down (2000 rpm, 5 min). Cells were permeabilized in Permeability buffer (1% FCS, 0.1% saponin (Sigma-Aldrich) in PBS pH 7.4) for 5 minutes. Cells were washed with FACS buffer (2% FCS, (Gibco) in PBS), centrifuged (2000 rpm, 5 min). The following primary antibodies were used: Bcl-xl-Alexa 488, (Cell Signaling, cat. numb. 2767S), dilution 1:75, 24 h; pAkt-Alexa Fluor 488, (Ser473), (Cell Signaling, cat. numb, 4071), dilution 1:50, 24 or 72h; After incubation for 1h at 4° C. samples were washed two times with FACS buffer. […] In order to calculate the signal to noise ratio mean fluorescent intensity (MFI) was calculated by the following equation: =POWER(10; (Medianstained−Median unstained, untreated)/Chd), where Chd means 256, the number of channels per decade (Fajka-Boja et al. 2002; Sharrow 2001) in Microsoft Excel. […]
(In general: A flow cytometer gives signals particle by particle.)

The subject of series [5] is active caspase-3 in HL-60 cells. The series is described as follows: caspase-3 activation by flow cytometric immunofluorescence (FIG. 5). It is filed as cell-based, human. As to conditions: HL-60, FIG. 5. As for the experimental part:
as §5, §6

For series [6], the system named is human primary fibroblasts. The series is described as follows: resazurin viability assay on primary fibroblasts, Example 103 (FIG. 1). In kind it is cell-based. Conditions: 72 h incubation, applied concentration range 1.6 nM-5 μM. From the text:
To obtain primary human fibroblasts healthy volunteers (age 18-60 years) were enrolled into the study. The punch biopsies were taken from healthy subjects from the breast area undergoing plastic surgery. Primary fibroblasts were obtained from the skin by enzymatic digestion according to a standard protocol. Skin specimens were first washed in Salsol A solution (Human Rt, Gödöllö, Hungary) supplemented with 2% antibiotic/antimycotic solution (Sigma-Aldrich). Skin samples were then cut into narrow strips and incubated in Dispase solution (Roche Diagnostics, Mannheim, Germany) overnight at 4° C. The epidermis was subsequently separated from the dermis. Fibroblasts were obtained by incubating the dermis in Digestion Mix solution (Collagenase, Hyaluronidase and Deoxyribonuclease) for 2h at 37° C. Cell suspensions were filtered through a 100 μm nylon mesh (BD Falcon, San Jose, Calif., USA) and cells were pelleted by centrifugation. Fibroblasts were grown in low glucose DMEM medium containing 5% FBS, 1% antibiotic/antimycotic (PAA, Pasching, Austria) and 1% L-glutamine solution (PAA). Fibroblasts were cultured at 37° C. and 5% CO2 in humidified conditions. Depending on the cell growth, the medium was changed every 2-4 days and cells were passaged at 80% of confluence.
The human primary fibroblasts (6000 cells/well) and Hl60 cells (20.000 cells/well) were seeded into 96-well plates (Corning Life Sciences) in media. Fibroblasts were cultured overnight before treatment. […] Resazurin reagent was prepared and used as described in Example 1.
Viability was calculated with relation to untreated control cells and blank wells containing media without cells. IC50 values (50% inhibiting concentration) were calculated by GraphPad Prism® 5.
In general terms: Alamar Blue is a resazurin reagent that responds to reducing activity.

Usually IC50 stands for the point on the concentration scale where inhibition reaches its midpoint. Consider `CC(C)(C)Nc1c(C(C)(C)C)[nH]c2c(C(=O)Nc3ccc(F)cc3)cnn12` [Example 60, 2-(Tert-butyl)-N-(4-fluorophenyl)-3-((tert-butyl-2-yl)amino)-1H-imidazo[1,2-b]pyrazole-7-carboxamide], for which the IC50 in series [1] was found to be 750 nM; in series [2], 300 nM; in series [3], 250 nM. In series [4], the “percentage of the pAkt bright cells” value is reported as “increase”. Moreover, the “percentage of active caspase-3 positive cells” value in series [5] is on record as “increased”. Besides, in series [6], the “decrease in viability of human primary fibroblasts” value is “Significant decrease in viability was not apparent”.
With `CC(C)(C)Nc1c(C(C)(C)C)[nH]c2c(C(=O)Nc3ccc(N)cc3)cnn12` [Example 83, N-(4-Aminophenyl)-2-(tert-butyl)-3-(tert-butylamino)-1H-imidazo[1,2-b]pyrazole-7-carboxamide], the IC50 in series [1] came to 300 nM; in series [2], 300 nM; in series [3] it was 100 nM. Further, in series [4], the “percentage of the pAkt bright cells” value is on record as “increase”. Further, the “percentage of active caspase-3 positive cells” value in series [5] is “increased”. The “decrease in viability of human primary fibroblasts” value in series [6] is listed as “Significant decrease in viability was not apparent”.
